Values quoted from earlier work as cited in patent US20170020130A1, “METHOD OF PREPARATION AND COMPOSITION OF ANT[…]” (Eltron Research & Development, LLC, priority 2008, published 2017).

Conditions: alkaline pH (7.5≦pH≦10.5), near the pKa

CC(=O)OO [peracetic acid]
stability (decomposition with evolution of oxygen): least stable
